Measurements as given in paper PMC8815882, “Screening the pandemic response box identified benzimidazole carbamates, Olorofim and ravuconazole as promising drug candidates for the treatment of eumycetoma” (PLoS Neglected Tropical Diseases, 2022).
Where two headings read alike, the source gives them in different places.

System: M. mycetomatis genome strain MM55
Assay: CLSI M38-A2 based in vitro susceptibility screening (XTT or resazurin), growth at fixed concentration
Assay type: cell-based, Madurella mycetomatis
Conditions: Madurella mycetomatis; for Percent fungal survival at 100 µM: read-out: Percentage survival at 100um, 100 uM A (second replicate column)
[1] = 25 uM, mean of replicates, read-out: Percentage survival at 25um, 25 uM mean
[2] = 25 uM, replicate A, read-out: Percentage survival at 25um, 25 um A
[3] = 25 uM, replicate B, read-out: Percentage survival at 25um, 25 uM B
[4] = 25 uM, replicate C, read-out: Percentage survival at 25um, 25 uM C
[5] = mean of replicates, read-out: Percentage survival at 100um, 100 uM mean
[6] = replicate 1, read-out: Percentage survival at 100um, 100 uM A (first replicate column)
[7] = replicate 3, read-out: Percentage survival at 100um, 100 uM A (third replicate column)
[8] = replicate 1, read-out: Percentage survival at 100um, 100 uM A
[9] = replicate 2, read-out: Percentage survival at 100um, 100 uM A
[10] = replicate 3, read-out: Percentage survival at 100um, 100 uM A
[11] = 25 uM, mean, read-out: Percentage survival at 25um, 25 uM mean
[12] = mean, read-out: Percentage survival at 100um, 100 uM mean
[13] = replicate (first column), read-out: Percentage survival at 100um, 100 uM A
[14] = replicate (second column), read-out: Percentage survival at 100um, 100 uM A
[15] = replicate (third column), read-out: Percentage survival at 100um, 100 uM A
[16] = 25 uM, mean of three replicates, read-out: Percentage survival at 25um, 25 uM mean
[17] = mean of three replicates, read-out: Percentage survival at 100um, 100 uM mean
[18] = 25 uM, mean of replicates, MM55, read-out: Percentage survival at 25um, 25 uM mean
[19] = 25 uM, replicate A, MM55, read-out: Percentage survival at 25um, 25 um A
[20] = 25 uM, replicate B, MM55, read-out: Percentage survival at 25um, 25 uM B
[21] = 25 uM, replicate C, MM55, read-out: Percentage survival at 25um, 25 uM C
[22] = mean of replicates, MM55, read-out: Percentage survival at 100um, 100 uM mean
[23] = replicate 1, MM55, read-out: Percentage survival at 100um, 100 uM A
[24] = replicate 2, MM55, read-out: Percentage survival at 100um, 100 uM A
[25] = replicate 3, MM55, read-out: Percentage survival at 100um, 100 uM A
[26] = 25 uM, mean of three, M. mycetomatis MM55, read-out: Percentage survival at 25um, 25 uM mean
[27] = 25 uM, replicate A, M. mycetomatis MM55, read-out: Percentage survival at 25um, 25 um A
[28] = 25 uM, replicate B, M. mycetomatis MM55, read-out: Percentage survival at 25um, 25 uM B
[29] = 25 uM, replicate C, M. mycetomatis MM55, read-out: Percentage survival at 25um, 25 uM C
[30] = mean of three, M. mycetomatis MM55, read-out: Percentage survival at 100um, 100 uM mean
[31] = replicate 1, M. mycetomatis MM55, read-out: Percentage survival at 100um, 100 uM A (first replicate column)
[32] = replicate 2, M. mycetomatis MM55
[33] = replicate 3, M. mycetomatis MM55, read-out: Percentage survival at 100um, 100 uM A (third replicate column)
[34] = first replicate column, read-out: Percentage survival at 100um, 100 uM A
[35] = second replicate column, read-out: Percentage survival at 100um, 100 uM A
[36] = third replicate column, read-out: Percentage survival at 100um, 100 uM A

CCOc1ccc(/C=N/NC(=O)C2CC2c2ccc(C(C)(C)C)cc2)cc1OCC (stereo not drawn) [MMV1634398]
activity at 25 µM [1]: 85.9%
activity at 25 µM [2]: 88.3%
activity at 25 µM [3]: 97.5%
activity at 25 µM [4]: 72%
activity at 100 µM [5]: 81.1%
activity at 100 µM [6]: 88.5%
Percent fungal survival at 100 µM (replicate 2): 87.7%
activity at 100 µM [7]: 67.1%

CC[C@@H]1C(=O)OC[C@@H]1Cc1cncn1C [MMV002516]
activity at 25 µM [1]: 82.7%
activity at 25 µM [2]: 90.3%
activity at 25 µM [3]: 90.6%
activity at 25 µM [4]: 67.2%
activity at 100 µM [5]: 73.8%
activity at 100 µM [8]: 82.4%
activity at 100 µM [9]: 85%
activity at 100 µM [10]: 53.9%

Oc1cc(-c2cccc3ccccc23)[nH]n1 [MMV422940]
activity at 25 µM [11]: 79.9%
activity at 25 µM [2]: 89.3%
activity at 25 µM [3]: 79.4%
activity at 25 µM [4]: 70.9%
activity at 100 µM [12]: 81.4%
activity at 100 µM [13]: 88.2%
activity at 100 µM [14]: 73.6%
activity at 100 µM [15]: 82.2%

CCOC(=O)/C=C/[C@H](C[C@@H]1CCNC1=O)NC(=O)[C@@H](CC(=O)[C@@H](NC(=O)c1cc(C)on1)C(C)C)Cc1ccc(F)cc1 [MMV1580491]
activity at 25 µM [16]: 96.1%
activity at 25 µM [2]: 96.2%
activity at 25 µM [3]: 112%
activity at 25 µM [4]: 79.9%
activity at 100 µM [17]: 93.9%
activity at 100 µM [6]: 99.7%
Percent fungal survival at 100 µM (replicate 2): 86.7%
activity at 100 µM [7]: 95.4%

Cn1cncc1[C@@](N)(c1ccc(Cl)cc1)c1ccc2c(c1)c(-c1cccc(Cl)c1)cc(=O)n2C [MMV658803]
activity at 25 µM [18]: 43.8%
activity at 25 µM [19]: 0.79%
activity at 25 µM [20]: 64.2%
activity at 25 µM [21]: 66.2%
activity at 100 µM [22]: 36.3%
activity at 100 µM [23]: 13.3%
activity at 100 µM [24]: 45%
activity at 100 µM [25]: 50.7%

CC(C)/N=c1\cc2n(-c3ccc(Cl)cc3)c3ccccc3nc-2cc1Nc1ccc(Cl)cc1 [MMV687800]
activity at 25 µM [26]: 71%
activity at 25 µM [27]: 77.2%
activity at 25 µM [28]: 68.8%
activity at 25 µM [29]: 67.2%
activity at 100 µM [30]: 71.4%
activity at 100 µM [31]: 65.1%
Percent fungal survival at 100 µM [32]: 75.2%
activity at 100 µM [33]: 73.9%

CC(C)(C)c1ccc(C(Cn2cccc(C(F)(F)F)c2=O)NC2Cc3ccccc3C2)cc1 (stereo not drawn) [MMV1634393]
activity at 25 µM [18]: 62.5%
activity at 25 µM [19]: 51.3%
activity at 25 µM [20]: 64.6%
activity at 25 µM [21]: 71.7%
activity at 100 µM [22]: 66.7%
activity at 100 µM [23]: 63.7%
activity at 100 µM [24]: 74.2%
activity at 100 µM [25]: 62.2%

OCCCCn1cnc2c(O)nc(NCc3ccc(Cl)c(Cl)c3)nc21 [MMV1593542]
activity at 25 µM [26]: 73.1%
activity at 25 µM [27]: 73.4%
activity at 25 µM [28]: 73.3%
activity at 25 µM [29]: 72.6%
activity at 100 µM [30]: 74.4%
activity at 100 µM [31]: 82.6%
Percent fungal survival at 100 µM [32]: 70.6%
activity at 100 µM [33]: 70.1%

COc1cc2c(O)c3c(c(-c4ccc5c(c4)OCO5)c2cc1OC)C(=O)OC3 [MMV102270]
activity at 25 µM [16]: 80.6%
activity at 25 µM [2]: 79.5%
activity at 25 µM [3]: 84.8%
activity at 25 µM [4]: 77.5%
activity at 100 µM [17]: 107%
activity at 100 µM [6]: 93.7%
Percent fungal survival at 100 µM (replicate 2): 74.4%
activity at 100 µM [7]: 153%

NC(=O)c1nccn([C@@H]2O[C@H](CO)[C@@H](O)[C@H]2O)c1=O [MMV1782104]
activity at 25 µM [16]: 99.8%
activity at 25 µM [2]: 102%
activity at 25 µM [3]: 107%
activity at 25 µM [4]: 90.3%
activity at 100 µM [34]: 97.1%
activity at 100 µM [17]: 86.1%
activity at 100 µM [35]: 97.7%
activity at 100 µM [36]: 63.4%

O=C(O)c1cc(-c2ccc(Br)cc2)nc2ccc(Cl)cc12 [MMV247764]
activity at 25 µM [18]: 73.4%
activity at 25 µM [19]: 82.6%
activity at 25 µM [20]: 78.8%
activity at 25 µM [21]: 58.9%
activity at 100 µM [22]: 54.4%
activity at 100 µM [23]: 60.9%
activity at 100 µM [24]: 52.4%
activity at 100 µM [25]: 49.8%

COc1ccc(CNC(=O)C(NS(=O)(=O)c2ccc3nc(C)sc3c2)C(C)C)cc1 (stereo not drawn) [MMV303733]
activity at 25 µM [16]: 91.8%
activity at 25 µM [2]: 74.6%
activity at 25 µM [3]: 73.6%
activity at 25 µM [4]: 127%
activity at 100 µM [17]: 75.7%
activity at 100 µM [6]: 82.2%
Percent fungal survival at 100 µM (replicate 2): 77.4%
activity at 100 µM [7]: 67.5%

COc1cc(C(C)(C)CCCC(C)C)cc(OC)c1OC [MMV1782102]
activity at 25 µM [16]: 78.4%
activity at 25 µM [2]: 88.5%
activity at 25 µM [3]: 83%
activity at 25 µM [4]: 63.5%
activity at 100 µM [34]: 90.3%
activity at 100 µM [17]: 83.9%
activity at 100 µM [35]: 86%
activity at 100 µM [36]: 75.5%

COC(=O)Nc1nc2ccc([S+]([O-])c3ccccc3)cc2[nH]1 (stereo not drawn) [MMV002565, Oxfendazole, reference compound]
activity at 25 µM [11]: 87.4%
activity at 25 µM [2]: 91.3%
activity at 25 µM [3]: 87.4%
activity at 25 µM [4]: 83.6%
activity at 100 µM [12]: 76.1%
activity at 100 µM [13]: 83.9%
activity at 100 µM [14]: 71.1%
activity at 100 µM [15]: 73.2%

O=C(Nc1ncc(Cc2cccc3ccccc23)s1)C1CCCCC1 [MMV1593532]
activity at 25 µM [1]: 92.1%
activity at 25 µM [2]: 93.7%
activity at 25 µM [3]: 94.5%
activity at 25 µM [4]: 88%
activity at 100 µM [5]: 93.9%
activity at 100 µM [8]: 107%
activity at 100 µM [9]: 89%
activity at 100 µM [10]: 85.1%

CONC(=N)c1ccc(-c2ccc(-c3ccc(C(=N)NOC)cc3)o2)cc1 [MMV000059]
activity at 25 µM [11]: 84.9%
activity at 25 µM [2]: 94.2%
activity at 25 µM [3]: 81%
activity at 25 µM [4]: 79.4%
activity at 100 µM [12]: 95.8%
activity at 100 µM [13]: 101%
activity at 100 µM [14]: 92%
activity at 100 µM [15]: 94.6%

N[C@H]1CCC[C@H]1C(=O)O [MMV1634361]
activity at 25 µM [18]: 92.1%
activity at 25 µM [19]: 98.3%
activity at 25 µM [20]: 98.6%
activity at 25 µM [21]: 79.4%
activity at 100 µM [22]: 96.6%
activity at 100 µM [23]: 90.9%
activity at 100 µM [24]: 120%
activity at 100 µM [25]: 79.2%

CCc1cc(Nc2cc(=O)n(CCN3CCN(C(=O)c4ccccc4)CC3)c(=O)[nH]2)ccc1C [MMV1634383]
activity at 25 µM [1]: 84%
activity at 25 µM [2]: 86.7%
activity at 25 µM [3]: 79.7%
activity at 25 µM [4]: 85.7%
activity at 100 µM [5]: 88.4%
activity at 100 µM [8]: 93%
activity at 100 µM [9]: 83.3%
activity at 100 µM [10]: 89%

O=C(NC12CC3CC(CC(C3)C1)C2)c1cc2ccccc2[nH]1 [MMV1578577]
activity at 25 µM [2]: 79.8%
activity at 100 µM [5]: 65.6%
activity at 100 µM [8]: 59.6%
activity at 100 µM [9]: 65.1%
activity at 100 µM [10]: 72.1%
activity at 25 µM (read-out: Percentage survival at 25um, 25 uM B): 67.1%
activity at 25 µM (read-out: Percentage survival at 25um, 25 uM C): 75.7%
activity at 25 µM (read-out: Percentage survival at 25um, 25 uM mean): 74.2%

Cc1cc(NS(=O)(=O)c2ccc(-c3ccc(F)cc3F)cc2)no1 [MMV1782217]
activity at 25 µM [11]: 78.8%
activity at 25 µM [2]: 76.3%
activity at 25 µM [3]: 79.1%
activity at 25 µM [4]: 81.1%
activity at 100 µM [12]: 93.7%
activity at 100 µM [13]: 83.4%
activity at 100 µM [14]: 76.4%
activity at 100 µM [15]: 121%

NC(=O)[C@@H]1CC[C@@H]2CN1C(=O)N2OS(=O)(=O)O [MMV1613560]
activity at 25 µM [26]: 88.8%
activity at 25 µM [27]: 94.4%
activity at 25 µM [28]: 88.3%
activity at 25 µM [29]: 83.7%
activity at 100 µM [30]: 85.1%
activity at 100 µM [31]: 93.4%
Percent fungal survival at 100 µM [32]: 67.9%
activity at 100 µM [33]: 94.1%
